# System: Hedgehog pathway
# Experiment: Hedgehog Pathway Cellular Differentiation Assay (alkaline phosphatase production in C3H10T1/2 cells with Shh ligand)
# Format: cell-based
# Conditions: 72 h; for inhibition at 3 µM: C3H 10T1/2, 3 μM compound
# Method in brief: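 C3H10T1/2 cells in DMEM/2% FBS with Shh-conditioned medium were treated 72 h with compound, threefold dilutions from 30 μM to 3 nM. After RIPA lysis, alkaline phosphatase was read with pNp (1 mg/mL, diethanolamine pH 9.8) at 30 °C, absorbance 405 nm. Percent inhibition and IC50 came from absorbance.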
# [1] = Mus musculus, Shh ligand conditioned media, alkaline phosphatase
"IC50 (Mus musculus, C3H 10T1/2, Shh ligand conditioned media, alkaline phosphatase (pNp, 405 nm)) [nM]",SMILES,inhibition at 3 µM [1] [%],"% Inhibition at 3 μM (3 μM compound, Shh ligand conditioned media, alkaline phosphatase) [%]"
–,"Cc1cc(C)c(-c2cn(C)c(C)n2)cc1NC(=O)c1ccc(OCc2ccccn2)cc1 [Example 73, N-(5-(1,2-dimethyl-1H-imidazol-4-yl)-2,4-dimethylphenyl)-4-(pyridin-2-ylmethoxy)benzamide]",85.8,–
–,"COc1cc(COc2ccc(C(=O)Nc3cc(-c4nc(C)c[nH]4)ccc3C)cc2)cc(OC)c1 [Example 43, 4-[(3,5-dimethoxyphenyl)methoxy]-N-[2-methyl-5-(4-methyl-1H-imidazol-2-yl)phenyl]benzamide]",81.4,–
–,"CCOc1ccnc(COc2ccc(C(=O)Nc3cc(-c4nccn4C)ccc3C)cc2)c1 [Example 97, 4-[(4-ethoxypyridin-2-yl)methoxy]-N-[2-methyl-5-(1-methyl-1H-imidazol-2-yl)phenyl]benzamide]",81.9,–
–,"Cc1ccc(-c2nnc(C)n2C)cc1NC(=O)c1ccc(OCc2ccccn2)cc1 [Example 39, N-(5-(4,5-dimethyl-4H-1,2,4-triazol-3-yl)-2-methylphenyl)-4-(pyridin-2-ylmethoxy)benzamide]",7.8,–
–,"Cc1ccc(-c2ncc[nH]2)cc1NC(=O)c1cccc(C#N)c1 [Example 146, 3-cyano-N-[5-(1H-imidazol-2-yl)-2-methyl-phenyl]benzamide]",17.1,–
–,"Cc1ccc(-c2ncc[nH]2)cc1NC(=O)c1ccc(OC(C)c2ccccn2)cc1 (centres unmarked) [Example 110, N-[5-(1H-imidazol-2-yl)-2-methylphenyl]-4-(1-pyridin-2-ylethoxy)benzamide]",92.3,–
–,"Cc1ccc(-c2cn(C)cn2)cc1NC(=O)c1ccc(OCc2ccccc2C#N)cc1 [Example 53, 4-[(2-cyanophenyl)methoxy]-N-[2-methyl-5-(1-methylimidazol-4-yl)phenyl]benzamide]",80.4,–
–,"Cc1ccc(-c2ccc3cc[nH]c3n2)cc1NC(=O)c1ccc(OCc2ccccn2)cc1 [Example 3, N-[5-(5,7-diazabicyclo[4.3.0]nona-2,4,8,10-tetraen-4-yl)-2-methyl-phenyl]-4-(pyridin-2-ylmethoxy)benzamide]",–,67.3
–,"Cc1ccc(-c2ncc[nH]2)cc1NC(=O)c1ccc(OCc2cc(OCCN3CCCCC3)ccn2)cc1 [Example 95, N-[5-(1H-imidazol-2-yl)-2-methylphenyl]-4-{[4-(2-piperidin-1-ylethoxy)pyridin-2-yl]methoxy}benzamide]",47,–
–,"Cc1ccc(-c2nc(-c3ccccc3)c[nH]2)cc1NC(=O)c1ccc(OCc2ccccn2)cc1 [Example 81, N-[2-methyl-5-(4-phenyl-1H-imidazol-2-yl)phenyl]-4-(pyridin-2-ylmethoxy)benzamide]",78.8,–
–,"Cc1ccc(-c2cc(C(F)(F)F)n[nH]2)cc1NC(=O)c1ccc(OCc2ccccn2)cc1 [Example 37, N-[2-methyl-5-[5-(trifluoromethyl)-2H-pyrazol-3-yl]phenyl]-4-(pyridin-2-ylmethoxy)benzamide]",38.2,–
–,"Cc1ccc(-c2cncn2C)cc1NC(=O)c1ccc(OCc2ccccc2C#N)cc1 [Example 52, 4-[(2-cyanophenyl)methoxy]-N-[2-methyl-5-(3-methylimidazol-4-yl)phenyl]benzamide]",79.8,–
–,"Cc1ccc(-c2ncc[nH]2)cc1NC(=O)c1ccc(OCc2cccc(N3CCOCC3)n2)cc1 [Example 129, N-[5-(1H-imidazol-2-yl)-2-methylphenyl]-4-[(6-morpholin-4-ylpyridin-2-yl)methoxy]benzamide]",82.8,–
–,"Cc1ccc(-c2ncc[nH]2)cc1NC(=O)c1ccc(OCc2ccc(S(C)(=O)=O)cc2)cc1 [Example 60, N-[5-(1H-imidazol-2-yl)-2-methylphenyl]-4-{[4-(methylsulfonyl)benzyl]oxy}benzamide]",79.7,–
30,"Cc1ccc(-c2ncnc3nc[nH]c23)cc1NC(=O)c1ccc(OCc2ccccn2)cc1 [Example 18, N-[2-methyl-5-(7H-purin-6-yl)phenyl]-4-(pyridin-2-ylmethoxy)benzamide]",48.4,–
–,"Cc1ccc(-c2cnn(CC(C)C)c2)cc1NC(=O)c1ccc(OCc2ccccn2)cc1 [Example 36, N-[2-methyl-5-[1-(2-methylpropyl)pyrazol-4-yl]phenyl]-4-(pyridin-2-ylmethoxy)benzamide]",26.9,–

# Reference: patent US20100311748A1, “HETEROCYCLIC AMIDES USEFUL FOR THE TREATMENT OF CANCER AND PSORIASIS” (ASTRAZENECA AB, priority 2007, published 2010)
